For 28 molecules, IC50 results are on record in patent US20260226020A1, “Nav 1.7 AND/OR Nav 1.8 BLOCKING HYDRAZIDES, PROCESSES FOR THE PREPARATION THEREOF, COMPOSITIONS, USES, METHODS OF TREATMENT USING SAME AND KITS” (Eurofarma Laboratórios S.A., priority 2023, published 2026).

For experiment [1], the target named is T1, human sodium channels Nav 1.8 (Homo sapiens, UniProt Q9Y5Y9).
T1 construct: expressed in transfected cells
Nature of the experiment: Automated whole-cell voltage-clamp (ScreenPatch 384P) sodium current block in CHO cells expressing Nav 1.8. The experiment is classed as cell-based. The note with it: CHO cells stably expressing human Nav 1.8; whole cell patch clamp, inactivation step -40 mV 8 s, test step 10 mV (TP1A), room temperature; mean where tested in two or more assays; read-out: Nav1.8 IC50. How it is done:
(§1) Biological assays were performed on Chinese hamster ovary (CHO) cells that express human sodium channels Nav 1.8 or Nav 1.7 in a stable manner.
(§2) The experimental protocol voltage-clamp using the whole cell configuration was established on the automated ScreenPatch© 384P platform (SP384PE, Nanion Technologies, Livingston, NJ) and the results were recorded with a Nanion 384-well Patch Clamp chip (NPC) (Nanion Technologies, Livingston, NJ).
(§3) Formula I compounds were diluted in eight concentrations in the extracellular solution composed of saline saline solution, buffered with HEPES (mM): NaCl, 137; KCl, 4; CaCl2, 3.8; MgCl2, 1; HEPES, 10; Glucose, 10; pH 7.4. The […], 50; CsF, 90; MgCl2, 5; EGTA, 5; HEPES, 10; pH 7.2. The duration of exposure of each compound with cells expressing Nav 1.7 or Nav 1.8 was at least five minutes, and the assays were performed at room temperature.
(§4) The measurements of the sodium currents of Nav 1.8 and Nav 1.7 were obtained using the voltage protocol described below.
(§5) A holding voltage of −100 mV was established followed by an inactivation voltage step at −40 mV for 8 seconds, followed by a step of −100 mV for 20 ms, followed by a 20 ms step for 10 mV for Nav 1.8 or 0 mV for Nav 1.7 (TP1A) before returning to the holding voltage of −100 mV.
(§6) The protocol was repeated at a frequency of 0.05 Hz and the amplitude of the current was quantified throughout the recording of the TP1A phase. The variation in the amplitude of the peak current was evaluated according to the formula described below, after exposing the cells expressing the channels to each concentration of the different compounds:
(§7) wherein ITP1A,basal and ITP1A,molecule represent the peaks of sodium current input into TP1A before exposure to the compound and in the presence of the compound, respectively.
(§8) The decrease in the amplitude of the peak current, after the exposure of the cells to the compounds, was used to calculate the percentage of relative blockage of the channels in relation to the positive control according to the formula below: […]
(§9) wherein % V and % CP represent the means of the values of current inhibition with a vehicle (DMSO) and positive controls, respectively. The sodium currents of the positive control were considered as 100%.
(§10) wherein [Test] represents the concentration of the molecule evaluated, CI50 is the concentration of the compound that generates half of the maximum inhibition, N is the Hill coefficient, and % Block′ is the percentage of sodium channel current (Nav 1.8 and Nav 1.7) blocked at each concentration of the molecule evaluated. Data were obtained by nonlinear regression (nonlinear least squares) with XLfit for Excel (Microsoft, Redmond, WA).
(§11) The compounds were tested in at least one assay to obtain the value of CI50. For compounds that were tested in two or more assays, the results are described as the means of the CI50 values.

Experiment [2] has as its target T2, human sodium channels Nav 1.7 (Homo sapiens, UniProt Q15858).
T2 construct: expressed in transfected cells
The experiment is described as follows: Automated whole-cell voltage-clamp (ScreenPatch 384P) sodium current block in CHO cells expressing Nav 1.7. The experiment is classed as cell-based. To be noted: CHO cells stably expressing human Nav 1.7; whole cell patch clamp, inactivation step -40 mV 8 s, test step 0 mV (TP1A), room temperature; mean where tested in two or more assays; read-out: Nav1.7 IC50. How it is done:
as §1, §2, §3, §4, §5, §6, §7, §8, §9, §10, §11

T2 sequence (Q15858 whole entry): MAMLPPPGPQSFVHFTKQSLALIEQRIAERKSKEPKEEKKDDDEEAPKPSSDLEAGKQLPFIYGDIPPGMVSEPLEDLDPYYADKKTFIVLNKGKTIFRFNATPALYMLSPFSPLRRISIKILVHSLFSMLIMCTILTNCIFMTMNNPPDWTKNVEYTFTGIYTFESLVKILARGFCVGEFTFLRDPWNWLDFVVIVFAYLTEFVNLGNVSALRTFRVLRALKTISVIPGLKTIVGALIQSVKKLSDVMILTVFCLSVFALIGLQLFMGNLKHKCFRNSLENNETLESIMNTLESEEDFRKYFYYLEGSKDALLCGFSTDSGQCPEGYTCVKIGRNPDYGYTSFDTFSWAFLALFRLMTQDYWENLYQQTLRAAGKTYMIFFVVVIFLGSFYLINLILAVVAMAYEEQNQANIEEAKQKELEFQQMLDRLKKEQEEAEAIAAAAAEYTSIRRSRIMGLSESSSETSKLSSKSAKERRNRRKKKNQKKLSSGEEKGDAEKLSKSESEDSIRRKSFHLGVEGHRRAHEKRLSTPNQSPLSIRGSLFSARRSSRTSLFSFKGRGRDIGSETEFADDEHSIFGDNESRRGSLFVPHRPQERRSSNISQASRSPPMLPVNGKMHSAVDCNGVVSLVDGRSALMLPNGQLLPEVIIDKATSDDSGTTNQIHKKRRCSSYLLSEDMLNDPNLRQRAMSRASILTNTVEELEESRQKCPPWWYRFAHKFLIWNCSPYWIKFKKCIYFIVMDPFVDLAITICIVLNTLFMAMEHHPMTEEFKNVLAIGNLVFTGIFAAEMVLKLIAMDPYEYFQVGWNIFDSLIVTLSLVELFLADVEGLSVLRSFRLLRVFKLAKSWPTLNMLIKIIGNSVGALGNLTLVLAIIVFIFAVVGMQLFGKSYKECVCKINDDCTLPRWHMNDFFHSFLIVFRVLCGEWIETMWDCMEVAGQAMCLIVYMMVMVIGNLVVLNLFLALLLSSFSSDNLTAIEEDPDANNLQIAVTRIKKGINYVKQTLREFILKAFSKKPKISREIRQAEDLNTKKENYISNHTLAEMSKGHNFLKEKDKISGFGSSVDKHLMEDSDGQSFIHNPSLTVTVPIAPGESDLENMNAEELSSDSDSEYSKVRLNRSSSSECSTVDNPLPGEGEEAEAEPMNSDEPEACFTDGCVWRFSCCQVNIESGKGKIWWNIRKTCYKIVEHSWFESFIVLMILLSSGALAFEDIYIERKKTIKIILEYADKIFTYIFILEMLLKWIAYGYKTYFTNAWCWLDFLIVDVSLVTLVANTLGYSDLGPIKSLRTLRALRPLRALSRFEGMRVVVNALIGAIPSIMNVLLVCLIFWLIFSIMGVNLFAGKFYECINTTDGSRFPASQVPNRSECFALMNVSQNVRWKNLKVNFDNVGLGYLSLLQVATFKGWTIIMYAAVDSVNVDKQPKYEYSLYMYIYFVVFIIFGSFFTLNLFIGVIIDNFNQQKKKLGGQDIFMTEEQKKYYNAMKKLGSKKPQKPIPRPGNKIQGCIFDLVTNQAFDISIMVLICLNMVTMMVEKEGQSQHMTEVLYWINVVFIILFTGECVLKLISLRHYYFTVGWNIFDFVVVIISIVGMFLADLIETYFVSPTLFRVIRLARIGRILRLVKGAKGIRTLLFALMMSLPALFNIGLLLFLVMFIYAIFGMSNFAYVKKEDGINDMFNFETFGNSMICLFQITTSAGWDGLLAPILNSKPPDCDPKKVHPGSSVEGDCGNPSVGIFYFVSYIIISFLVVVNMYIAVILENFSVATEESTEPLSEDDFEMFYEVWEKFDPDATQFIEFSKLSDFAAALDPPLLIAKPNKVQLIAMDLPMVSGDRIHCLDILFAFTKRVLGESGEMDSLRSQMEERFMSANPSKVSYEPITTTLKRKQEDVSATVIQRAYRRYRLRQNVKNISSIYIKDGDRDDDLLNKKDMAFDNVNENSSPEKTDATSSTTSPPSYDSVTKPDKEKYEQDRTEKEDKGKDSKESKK
T1 sequence (Q9Y5Y9 whole entry): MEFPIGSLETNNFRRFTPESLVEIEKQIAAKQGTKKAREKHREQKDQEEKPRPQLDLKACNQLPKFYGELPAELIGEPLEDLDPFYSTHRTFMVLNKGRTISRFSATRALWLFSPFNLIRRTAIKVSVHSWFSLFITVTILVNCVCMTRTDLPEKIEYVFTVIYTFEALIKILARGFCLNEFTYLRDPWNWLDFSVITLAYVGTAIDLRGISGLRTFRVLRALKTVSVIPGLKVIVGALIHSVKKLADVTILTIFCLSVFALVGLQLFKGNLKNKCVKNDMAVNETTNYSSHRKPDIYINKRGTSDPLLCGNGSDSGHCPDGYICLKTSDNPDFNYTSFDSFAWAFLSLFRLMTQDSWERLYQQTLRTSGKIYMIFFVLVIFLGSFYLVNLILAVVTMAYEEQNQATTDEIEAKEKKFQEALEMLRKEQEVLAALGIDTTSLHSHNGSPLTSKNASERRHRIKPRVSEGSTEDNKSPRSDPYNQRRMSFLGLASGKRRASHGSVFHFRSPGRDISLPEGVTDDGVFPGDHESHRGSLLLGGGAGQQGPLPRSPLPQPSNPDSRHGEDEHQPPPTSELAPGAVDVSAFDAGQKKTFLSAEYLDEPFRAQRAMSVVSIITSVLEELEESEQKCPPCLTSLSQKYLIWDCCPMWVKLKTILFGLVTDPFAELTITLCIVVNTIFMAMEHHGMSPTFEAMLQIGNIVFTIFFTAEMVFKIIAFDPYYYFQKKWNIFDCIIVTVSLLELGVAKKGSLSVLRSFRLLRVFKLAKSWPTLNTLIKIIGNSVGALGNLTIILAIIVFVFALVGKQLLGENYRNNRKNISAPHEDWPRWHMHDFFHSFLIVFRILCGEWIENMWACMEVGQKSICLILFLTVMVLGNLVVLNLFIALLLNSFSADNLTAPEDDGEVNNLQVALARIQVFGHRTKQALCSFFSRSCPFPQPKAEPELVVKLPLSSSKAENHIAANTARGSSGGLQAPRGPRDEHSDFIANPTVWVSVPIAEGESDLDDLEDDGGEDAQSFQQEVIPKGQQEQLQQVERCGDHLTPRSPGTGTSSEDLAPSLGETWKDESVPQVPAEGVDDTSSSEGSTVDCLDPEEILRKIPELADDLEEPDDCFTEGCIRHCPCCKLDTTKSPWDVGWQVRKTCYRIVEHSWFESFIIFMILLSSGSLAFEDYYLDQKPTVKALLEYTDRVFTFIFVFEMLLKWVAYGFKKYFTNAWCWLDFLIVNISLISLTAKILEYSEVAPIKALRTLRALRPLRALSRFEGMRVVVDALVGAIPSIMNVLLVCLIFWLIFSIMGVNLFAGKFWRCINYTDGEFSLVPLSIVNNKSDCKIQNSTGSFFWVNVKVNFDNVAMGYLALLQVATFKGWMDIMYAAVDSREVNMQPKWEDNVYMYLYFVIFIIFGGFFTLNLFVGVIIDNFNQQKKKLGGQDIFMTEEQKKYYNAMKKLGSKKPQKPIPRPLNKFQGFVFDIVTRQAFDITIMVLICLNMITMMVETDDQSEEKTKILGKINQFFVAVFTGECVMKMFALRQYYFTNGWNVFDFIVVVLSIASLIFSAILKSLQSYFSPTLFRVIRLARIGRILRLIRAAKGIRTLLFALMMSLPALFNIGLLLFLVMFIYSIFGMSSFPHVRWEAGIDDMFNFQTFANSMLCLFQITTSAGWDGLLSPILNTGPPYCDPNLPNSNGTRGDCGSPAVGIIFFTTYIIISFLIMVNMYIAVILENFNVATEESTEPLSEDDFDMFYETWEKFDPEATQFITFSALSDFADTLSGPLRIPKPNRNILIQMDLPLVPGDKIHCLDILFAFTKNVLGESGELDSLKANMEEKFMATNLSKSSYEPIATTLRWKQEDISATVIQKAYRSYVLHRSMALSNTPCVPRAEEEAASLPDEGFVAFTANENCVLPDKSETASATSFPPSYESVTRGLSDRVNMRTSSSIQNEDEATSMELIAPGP

Take `CCOc1ccc(-c2cncc(C(=O)NN[C@@H](C)c3cc(OC)cc(OC)c3)n2)cc1` (single isomer, unassigned) [Compound 24]: the IC50 in experiment [1] and in experiment [2] was over 1 µM each time.

In the case of `CCOc1ccc(-c2cncc(C(=O)NN[C@H](C)c3cc(OC)cc(OC)c3)n2)cc1` (single isomer, unassigned) [Compound 25], the values for the IC50 in experiment [1] and in experiment [2] were 0.5 to 1 µM and over 1 µM, respectively.

For `COc1ccc(-c2cncc(C(=O)NNCc3cc(OC)cc(OC)c3)n2)cc1` [Compound 1, N′-(3,5-dimethoxybenzyl)-6-(4-methoxyphenyl)pyrazine-2-carbohydrazide], the figures for the IC50 in experiment [1] and in experiment [2] were 0.5 to 1 µM and over 1 µM, respectively.

Consider `COc1ccc(-c2cncc(C(=O)NNCc3ccc(Cl)cc3)n2)cc1` [Compound 2, N′-(4-chlorobenzyl)-6-(4-methoxyphenyl)pyrazine-2-carbohydrazide], for which the IC50 in experiment [1] and in experiment [2] was over 1 µM in each case.

As for `COc1cc(CNNC(=O)c2cncc(-c3ccc(OC(C)C)cc3)n2)cc(OC)c1` [Compound 3, N′-(3,5-dimethoxybenzyl)-6-(4-isopropoxyphenyl)pyrazine-2-carbohydrazide], the IC50 in experiment [1] is under 0.5 µM; in experiment [2], over 1 µM.

Turning to `O=C(NNCc1ccc(Cl)cc1)c1cncc(-c2ccc(OC3CC3)cc2)n1` [Compound 4, N′-(4-chlorobenzyl)-6-(4-cyclopropoxyphenyl)pyrazine-2-carbohydrazide], the IC50 in experiment [1] and in experiment [2] was over 1 µM each time.

For `O=C(NNCc1ccc(Cl)cc1)c1cncc(-c2ccc(Cl)cc2)n1` [Compound 5, N′-(4-chlorobenzyl)-6-(4-chlorophenyl)pyrazine-2-carbohydrazide], the IC50 in experiment [1] and in experiment [2] was over 1 µM in each case.

With `O=C(NN1CCc2cc(Cl)ccc2C1)c1cncc(-c2ccc(Cl)cc2)n1` [Compound 6, N-(6-chloro-3,4-dihydroisoquinoline-2 (1H)-yl)-6-(4-chlorophenyl)pyrazine-2-carboxamide], the half-inhibitory concentration (IC50) in experiment [1] and in experiment [2] was over 1 µM in each case.

As for `COc1cc(CNNC(=O)c2cncc(-c3ccc(OC(F)F)cc3)n2)cc(OC)c1` [Compound 7, 6-(4-(difluoromethoxy)phenyl)-N′-(3,5-dimethoxybenzyl)pyrazine-2-carbohydrazide], the values for the IC50 in experiment [1] and in experiment [2] were 0.5 to 1 µM and over 1 µM, respectively.

For `COc1cc(CNNC(=O)c2cncc(-c3ccc(OC(F)F)nc3)n2)cc(OC)c1` [Compound 8, 6-(6-(difluoromethoxy)pyridin-3-yl)-N′-(3,5-dimethoxybenzyl)pyrazine-2-carbohydrazide], the IC50 is under 0.5 µM in experiment [1] and over 1 µM in experiment [2].

With `CCOc1ccc(-c2cncc(C(=O)NNCc3ccc(Cl)cc3)n2)cc1` [Compound 9, N′-(4-chlorobenzyl)-6-(4-ethoxyphenyl)pyrazine-2-carbohydrazide], the IC50 in experiment [1] and in experiment [2] was over 1 µM in each case.

On to `CCOc1ccc(-c2cncc(C(=O)NNCc3cc(OC)cc(OC)c3)n2)cc1` [Compound 10, N′-(3,5-dimethoxybenzyl)-6-(4-ethoxyphenyl)pyrazine-2-carbohydrazide], for which the IC50 in experiment [1] was under 0.5 µM; in experiment [2], 0.5 to 1 µM.

As for `CCOc1ccc(-c2cncc(C(=O)NN3CCCc4ccc(OC)cc4C3)n2)cc1` [Compound 11, 6-(4-ethoxyphenyl)-N-(8-methoxy-1,3,4,5-tetrahydro-2H-benzo[c]azepin-2-yl)pyrazine-2-carboxamide], the 50% inhibitory concentration (IC50) in experiment [1] and in experiment [2] was over 1 µM throughout.

For the molecule `CCOc1ccc(-c2cncc(C(=O)NN3CCOc4ccc(OC)cc4C3)n2)cc1` [Compound 12, 6-(4-ethoxyphenyl)-N-(7-methoxy-2,3-dihydrobenzo[f][1,4]oxazepine-4(5H)-yl)pyrazine-2-carboxamide], the 50% inhibitory concentration (IC50) in experiment [1] and in experiment [2] was over 1 µM in each case.

For the molecule `CCOc1ccc(-c2cncc(C(=O)NN3Cc4ccc(OC)cc4C3)n2)cc1` [Compound 13, 6-(4-ethoxyphenyl)-N-(5-methoxyisoindolin-2-yl)pyrazine-2-carboxamide], the half-inhibitory concentration (IC50) is under 0.5 µM in experiment [1] and over 1 µM in experiment [2].

For `CCOc1ccc(-c2cncc(C(=O)NNCc3cc(OC)ccc3C)n2)cc1` [Compound 14, 6-(4-ethoxyphenyl)-N′-(5-methoxy-2-methylbenzyl)pyrazine-2-carbohydrazide], the IC50 was under 0.5 µM in experiment [1] and over 1 µM in experiment [2].

`CCOc1ccc(-c2cncc(C(=O)NNCc3cc(OC)ccc3F)n2)cc1` [Compound 15, 6-(4-ethoxyphenyl)-N′-(2-fluoro-5-methoxybenzyl)pyrazine-2-carbohydrazide]: the IC50 in experiment [1] is under 0.5 µM; in experiment [2], over 1 µM.

Take `CCOc1ccc(-c2cncc(C(=O)NNCc3cccc(OC)c3)n2)cc1` [Compound 16, 6-(4-ethoxyphenyl)-N′-(3-methoxybenzyl)pyrazine-2-carbohydrazide]: the IC50 is under 0.5 µM in experiment [1] and over 1 µM in experiment [2].

Consider `CCOc1ccc(-c2cncc(C(=O)NN(C)Cc3cc(OC)cc(OC)c3)n2)cc1` [Compound 17, N′-(3,5-dimethoxybenzyl)-6-(4-ethoxyphenyl)-N′-methylpyrazine-2-carbohydrazide], for which the IC50 in experiment [1] and in experiment [2] was over 1 µM each time.

Turning to `CCOc1ccc(-c2cncc(C(=O)NNCc3cc(OC)cnc3C)n2)cc1` [Compound 18, 6-(4-ethoxyphenyl)-N′-((5-methoxy-2-methylpyridin-3-yl)methyl)pyrazine-2-carbohydrazide], the IC50 in experiment [1] was under 0.5 µM; in experiment [2] it was over 1 µM.

For `CCOc1ccc(-c2cncc(C(=O)NNCc3ccccc3F)n2)cc1` [Compound 22, 6-(4-ethoxyphenyl)-N′-(2-fluorobenzyl)pyrazine-2-carbohydrazide], the results for the IC50 in experiment [1] and in experiment [2] were under 0.5 µM and over 1 µM, respectively.

For the molecule `CCOc1ccc(-c2cncc(C(=O)NNCc3cc(OC)cnc3F)n2)cc1` [Compound 26, 6-(4-ethoxyphenyl)-N′-((2-fluoro-5-methoxypyridin-3-yl)methyl)pyrazine-2-carbohydrazide], the values for the IC50 in experiment [1] and in experiment [2] were 0.5 to 1 µM and over 1 µM, respectively.

As for `CCOc1ccc(-c2cncc(C(=O)NNCc3cc(OC)cc(OC)c3)n2)c(F)c1` [Compound 27, N′-(3,5-dimethoxybenzyl)-6-(4-ethoxy-2-fluorophenyl)pyrazine-2-carbohydrazide], the IC50 in experiment [1] was under 0.5 µM; in experiment [2], over 1 µM.

Consider `CCOc1ccc(-c2cncc(C(=O)NNCc3cc(OC)cc(OC)c3)n2)c(C)c1` [Compound 28, N′-(3,5-dimethoxybenzyl)-6-(4-ethoxy-2-methylphenyl)pyrazine-2-carbohydrazide], for which the values for the 50% inhibitory concentration (IC50) in experiment [1] and in experiment [2] were under 0.5 µM and over 1 µM, respectively.

Regarding `CCOc1ccc(-c2cncc(C(=O)NNCc3cc(OC)cc(OC)c3)n2)cn1` [Compound 29, N′-(3,5-dimethoxybenzyl)-6-(6-ethoxypyridin-3-yl)pyrazine-2-carbohydrazide], the IC50 in experiment [1] was 0.5 to 1 µM; in experiment [2], over 1 µM.

Turning to `CCOc1ccc(-c2cncc(C(=O)NNCc3cccc(OC)c3)n2)cn1` [Compound 30, 6-(6-ethoxypyridin-3-yl)-N′-(3-methoxybenzyl)pyrazine-2-carbohydrazide], the IC50 in experiment [1] is under 0.5 µM; in experiment [2] it was over 1 µM.

`CCOc1ccc(-c2cncc(C(=O)NNCc3cc(OC)cnc3F)n2)cn1` [Compound 31, 6-(6-ethoxypyridin-3-yl)-N′-((2-fluoro-5-methoxypyridin-3-yl)methyl)pyrazine-2-carbohydrazide]: the IC50 in experiment [1] and in experiment [2] was over 1 µM in each case.

Take `CCOc1ccc(-c2cncc(C(=O)NNCc3cc(OC)ccc3F)n2)cn1` [Compound 32, 6-(6-ethoxypyridin-3-yl)-N′-(2-fluoro-5-methoxybenzyl)pyrazine-2-carbohydrazide]: the IC50 in experiment [1] is under 0.5 µM; in experiment [2] it was over 1 µM.
